Test results: patent US10981858B2, “Dendrimer and formulations thereof” (Priostar Pty Ltd, priority 2015, dated 2021)
Entries after “also recorded” stand apart in the source; their conditions may differ.

Assays:
Assay type in all cases: physicochemical
[1] = Tebuconazole 600 SC formulation viscosity (Table 8); conditions: dendrimer 0.7%
Description: (§1) Formulations were prepared by mixing water, surfactant, dispersing agent, wetting agent and antifoam together then gradually adding active. High shear mix for 20-30 minutes to disperse formulation ingredients in water before adding the active and mixing until homogeneous. The mixture was milled on a Dyno bead mill (1 m/s) with 0.4-0.6 mm beads at max. 40° C. until particle size was <4 um. Dendrimer compound (in DEG) was added and stirred for 20 minutes. Thickener and antimicrobial was then added and stirred for 20 minutes. Formulations were deaerated by sonication.

[2] = Solubilization of Methylated seed oil (MSO) in aqueous LA-9 solution; conditions: 50 g, until hazy
Description: 10% aqueous solution of Ethoxylated Lauryl alcohol-9 mole (water soluble surfactant) was prepared in Deionized water (5 g in 45 ml). Dendrimer compounds 1 and 4 were prepared 70:30 w/w in Diethylene glycol (DEG). The 10% Ethoxylated Lauryl alcohol-9 M (LA-9) solution was combined with dendrimer DEG solution at 80:20 and 60:40 w/w (total weight of 50 g).
Methylated seed oil (MSO) (STEPOSOL-ROE-W, canola oil methyl ester, Stepan) was added dropwise under stirring to the 10% LA-9 solution (with or without dendimers), until the solution became hazy. Weight of MSO added was recorded.

[3] = Tebuconazole 600 SC wetting study in hard water; conditions: one drop Tebuconazole 600 SC, dendrimer 0.7%, in 342 ppm hard water at 30° C.
Description: as §1
Wetting studies were conducted by placing one drop of Tebuconazole 600 SC formulation in 342 ppm hard water at 30° C. and recording the time when all the formulation particles were wet and dispersed in water.

[4] = Tebuconazole 600 SC hard water testing: suspensibility, column thinning, sedimentation; conditions: 2 ml Tebuconazole 600 SC, dendrimer 0.7%, in 98 ml 342 ppm hard water, 30° C., 24 hours
Description: as §1
98 ml of 342 ppm hard water (prepared as per CIPAC method MT18) was heated to 30° C. before adding 2 ml. of Tebuconazole 600 SC formulation. Temperature was maintained at 30° C. for 24 hours and formulation characteristics were studied for suspension stability, wetting, column thinning/separation and sedimentation.

Cloud point studies = conditions: 1 gm. dendrimer solution (70:30 w/w dendrimer:Diethylene Glycol) in 99 gm. of 10% NaOH solution
Description: 1 gm. of dendrimer solution (70:30 w/w dendrimer [Compound 1 or Compound 4]:Diethylene Glycol) was dissolved in 99 gm. of 10% NaOH solution in Deionized water and heated until hazy. Temperature of the solution was measured using calibrated thermometer.

[5] = Dynamic viscosity of aqueous dendrimer solution (Brookfield); conditions: aqueous solution 7% dendrimer and 3% DEG, ambient temperature, spindle no. 63 at 50 rpm
Description: 50 g aqueous solution of dendrimer (7% dendrimer and 3% DEG) was prepared in deionized water in a beaker, and subjected to dynamic viscosity measurement using Brookfield viscometer at ambient temperature. Viscosity studies were conducted using spindle no. 63 at 50 rpm. It was observed that viscosity of Compound-1 solution was 1.8 cps and Compound-4 solution was 0.6 cps.

[6] = 2,4-D/dendrimer formulation stability study (crystallisation at 0° C.); conditions: for Crystallisation After 7 Days at 0° C. With Seeding: 2,4-D Amine 625 g/l seeded with 2,4-D Amine salt; for Crystallisation After 7 Days at 0° C.: without seeding
Description: 20 ml of 2,4-D Amine(2,4-D 625 g/l market sample, Rygel, Adama Australia) was transferred to 25 ml clear vials and dendrimer added (with or without 30% Dithethylene Glycol). Caps were tightened to ensure no moisture entered the vials. Formulations were placed in a freezer at 0° C. […] In a related experiment, formulations were prepared with seeding with 2,4-D Amine salt (Shanghai Biochemical Sci. Ltd., purity 98 in order to hasten rate of crystallisation. The results are provided in Table 2.

[7] = Additional tebuconazole formulations: suspension stability and viscosity; conditions: additional tebuconazole formulation, 0.8% additive
Description: Additional formulations were developed, and formulation characteristics were studied for suspension stability, and viscosity.

[8] = 2,4-D/dendrimer hard water testing (clarity, sedimentation); conditions: 30° C.; for Appearance at Addition / Appearance/Sedimentation After 24 Hrs.: 2,4-D Amine in 342 ppm hard water; for Appearance of 2,4-D solutions in hard water: all concentrations tested (from 1.4 to 10%), 342 ppm hard water, 24 hours
Description: 342 ppm hard water was prepared as per CIPAC method MT18. The hard water was heated to 30° C. […]

[9] = Water value of dendrimers with solvent (Solvesso 200); conditions: 50 g aqueous solution, 7% dendrimer and 3% DEG; until hazy
Description: 50 g Aqueous solution of Dendrimer were prepared containing 7% dendrimer and 3% Diethylene glycol (DEG) by weight. Solvesso 200 (C10-13 aromatic hydrocarbon solvent) was added dropwise under stirring until the solution became hazy. Weight of Solvesso added was recorded.

[10] = Solubilization of water insoluble surfactant Ethoxylated Lauryl alcohol-3 M in LA-9 solution; conditions: 50 g, until hazy
Description: 5% w/w aqueous solution of Ethoxylated Lauryl alcohol-9 mole (water soluble surfactant) was prepared in Deionized water (2.5 g in 47.5 ml). Dendrimer compounds 1 and 4 were diluted 70:30 w/w in Diethylene glycol. The 5% Ethoxylated Lauryl alcohol-9 M (LA-9) solution was combined with dendrimer DEG solution at 90:10, 80:20 and 70:30 w/w (total weight 50 g).
Ethoxylated lauryl alcohol-3 mole (water insoluble surfactant) was added dropwise, while stirring, to the 50 g LA-9 solution (with or without dendrimer), until it became hazy. The weight of Ethoxylated lauryl alcohol-3 M added was recorded.

[11] = 2,4-D Amine 625 g/l, dendrimer 2%
[12] = 2,4-D Amine 625 g/l, dendrimer 5%
[13] = 2,4-D Amine 625 g/l, dendrimer 10%

CCC(COCC(O)CN(CCO)CCO)(COCC(O)CN(CCO)CCO)COCC(O)CN(CCO)CCO (stereo not shown) [Compound 1, 9-((3-(bis(2-hydroxyethyl)amino)-2-hydroxypropoxy)methyl)-9-ethyl-3,15-bis(2-hydroxyethyl)-7,11-dioxa-3,15-diazaheptadecane-1,5,13,17-tetraol, reference compound]
Viscosity 0 C. ([1]; 0 C.): 786
Viscosity 54 C. ([1]; 54 C.): 743
Viscosity RT ([1]; RT): 720 cP
Quantity MSO added to 10% LA-9 solution ([2]; ratio LA-9 solution:dendrimer/DEG solution 60:40 (w/w), 28% dendrimer (w/w)): 0.56 g
Quantity MSO added to 10% LA-9 solution ([2]; ratio LA-9 solution:dendrimer/DEG solution 80:20 (w/w), 14% dendrimer (w/w)): 0.54 g
Wetting [3]: 33.3 s
Suspensibility: Sediment [4]: 0.5 mL⁻¹
Suspensibility: nature of sediment [4]: Compact
Suspensibility: Column Thinning ([4]; top thinning): 10 ml. Top
Cloud point (temperature at which solution turned hazy) (Cloud point studies): 65 °C
Dynamic viscosity [5]: 1.8 cps
Crystallisation After 7 Days at 0° C. With Seeding ([6]; dendrimer 1.4%, Diethylene Glycol 0.6%): Crystallised
Crystallisation After 7 Days at 0° C. With Seeding ([6]; dendrimer 3.5%, Diethylene Glycol 1.5%): Crystallised
Crystallisation After 7 Days at 0° C. With Seeding ([6]; dendrimer 7%, Diethylene Glycol 3%): Crystallised
Crystallisation at 0° C. with seeding ([6]; 2,4-D Amine 625 g/l, all the dosages of dendrimer): crystallised
Crystallisation After 14 Days at 0° C. ([6]; 2,4-D Amine 625 g/l, dendrimer 1.4%, Diethylene Glycol 0.6%): Crystallised
Crystallisation After 14 Days at 0° C. [6, 11]: Crystallised
Crystallisation After 14 Days at 0° C. ([6]; 2,4-D Amine 625 g/l, dendrimer 3.5%, Diethylene Glycol 1.5%): Crystallised
Crystallisation After 14 Days at 0° C. [6, 12]: Crystallised
Crystallisation After 14 Days at 0° C. ([6]; 2,4-D Amine 625 g/l, dendrimer 7%, Diethylene Glycol 3%): Crystallised
Crystallisation After 14 Days at 0° C. [6, 13]: Crystallised
Crystallisation After 7 Days at 0° C. [6, 11]: resulted in crystallisation; also recorded: Crystallised
Crystallisation After 7 Days at 0° C. [6, 12]: resulted in crystallisation; also recorded: Crystallised
Crystallisation After 7 Days at 0° C. [6, 13]: No
Observation: consistency [7]: Pseudoplastic liquid,
Observation: sediment at 0 C. ([7]; 0 C.): no sediment at 0 C.
Viscosity (cP) 0 C. ([7]; 0 C.): 2844 cP
Viscosity (cP) RT ([7]; RT): 2566 cP
Appearance at Addition ([8]; dendrimer 1.4% (w/w), 0.6% DEG): Clear
Appearance/Sedimentation After 24 Hrs. ([8]; dendrimer 1.4% (w/w), 0.6% DEG): Hazy with sediment
Appearance at Addition ([8]; dendrimer 2% (w/w)): Clear
Appearance/Sedimentation After 24 Hrs. ([8]; dendrimer 2% (w/w)): Hazy with sediment
Appearance at Addition ([8]; dendrimer 3.5% (w/w), 1.5% DEG): Clear
Appearance/Sedimentation After 24 Hrs. ([8]; dendrimer 3.5% (w/w), 1.5% DEG): Hazy with sediment
Appearance at Addition ([8]; dendrimer 5% (w/w)): Clear
Appearance/Sedimentation After 24 Hrs. ([8]; dendrimer 5% (w/w)): Hazy with sediment
Appearance at Addition ([8]; dendrimer 7% (w/w), 3% DEG): Clear
Appearance/Sedimentation After 24 Hrs. ([8]; dendrimer 7% (w/w), 3% DEG): Hazy with sediment
Appearance at Addition ([8]; dendrimer 10% (w/w)): Clear
Appearance/Sedimentation After 24 Hrs. ([8]; dendrimer 10% (w/w)): Hazy with sediment
Appearance of 2,4-D solutions in hard water [8]: hazy solutions with sediment
Quantity Solvesso 200 added [9]: 1.31 g
Quantity LA-3 added to LA-9 solution ([10]; ratio 5% LA-9 solution:dendrimer/DEG solution 70:30 (w/w), 21% dendrimer (w/w)): 1.96 g
Quantity LA-3 added to LA-9 solution ([10]; ratio 5% LA-9 solution:dendrimer/DEG solution 80:20 (w/w), 14% dendrimer (w/w)): 2.00 g
Quantity LA-3 added to LA-9 solution ([10]; ratio 5% LA-9 solution:dendrimer/DEG solution 90:10 (w/w), 7% dendrimer (w/w)): 1.83 g

CCC(COCC(O)CN(CCOC)CCOC)(COCC(O)CN(CCOC)CCOC)COCC(O)CN(CCOC)CCOC (stereo not shown) [Compound 8, 11-((3-(bis(2-methoxyethyl)amino)-2-hydroxypropoxy)methyl)-11-ethyl-5,17-bis(2-methoxyethyl)-2,9,13,20-tetraoxa-5,17-diazahenicosane-7,15-diol]
Appearance at Addition ([8]; dendrimer 2% (w/w)): Clear
Appearance/Sedimentation After 24 Hrs. ([8]; dendrimer 2% (w/w)): Hazy with sediment
Appearance at Addition ([8]; dendrimer 5% (w/w)): Clear
Appearance/Sedimentation After 24 Hrs. ([8]; dendrimer 5% (w/w)): Hazy with sediment
Appearance at Addition ([8]; dendrimer 10% (w/w)): Clear
Appearance/Sedimentation After 24 Hrs. ([8]; dendrimer 10% (w/w)): Hazy with sediment
Appearance of 2,4-D solutions in hard water [8]: hazy solutions with sediment
